Experimental findings from article PMC10253357, “Acceptors and Effectors Alter Substrate Inhibition Kinetics of a Plant Glucosyltransferase NbUGT72AY1 and Its Mutants” (International Journal of Molecular Sciences, 2023) are described below.

Data set [1] deals with T1, NbUGT72AY1 (Nicotiana benthamiana, UniProt A0A8K1ZRH3).
T1 construct: pGEX-4T-1 vector (GST fusion expected), expressed in E. coli BL21(DE3) pLysS
T1 sequence (A0A8K1ZRH3 1-477): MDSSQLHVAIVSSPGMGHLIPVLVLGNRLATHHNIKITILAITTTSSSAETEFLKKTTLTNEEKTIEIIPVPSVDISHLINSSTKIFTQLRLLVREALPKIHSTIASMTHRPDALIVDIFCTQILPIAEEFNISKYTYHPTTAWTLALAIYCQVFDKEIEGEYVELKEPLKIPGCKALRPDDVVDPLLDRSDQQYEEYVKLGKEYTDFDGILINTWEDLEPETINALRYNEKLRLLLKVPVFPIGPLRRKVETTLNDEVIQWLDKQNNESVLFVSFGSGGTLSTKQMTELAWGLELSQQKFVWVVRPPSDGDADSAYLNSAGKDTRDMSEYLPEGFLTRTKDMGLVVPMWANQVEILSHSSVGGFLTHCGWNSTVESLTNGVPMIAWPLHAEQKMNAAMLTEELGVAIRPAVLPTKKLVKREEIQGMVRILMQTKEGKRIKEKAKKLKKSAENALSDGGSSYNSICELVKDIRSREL
The experiment in a line: UDP-Glo assay with vanillin, effector added. Format: biochemical. Conditions: vanillin acceptor, UDP-glucose donor, Tris pH 7.5, 40 °C.

Data set [2] concerns the target T1, NbUGT72AY1. The data set is described as follows: UDP-Glo glucosyltransferase assay, UDP release. Conditions: UDP-glucose donor, Tris pH 7.5, 40 °C. The class given is biochemical.
Data set [3] has as its target T2, chimera A.
T2 construct: gene UGT72AY1; NbUGT72AY1 (MT945401) with a segment of StUGT72AY2 from Solanum tuberosum; pGEX-4T-1, E. coli
The experiment in a line: UDP-Glo glucosyltransferase assay, UDP release. Conditions: substrate inhibition constant, uncompetitive model with Hill coefficients; UDP-glucose donor; Tris pH 7.5, 40 °C. Format: biochemical, Nicotiana benthamiana.

Data set [4] concerns the target T1, NbUGT72AY1. The data set is described as follows: UDP-Glo glucosyltransferase assay, UDP release. The class given is biochemical. Conditions: UDP-glucose donor; Tris pH 7.5, 40 °C; fit with substrate inhibition and Hill coefficients.
Substrate in data set [5]: Oc1ccc(O)cc1
The data set is described as follows: UDP-Glo glucosyltransferase assay, UDP release. The class given is biochemical, Nicotiana benthamiana. Conditions: UDP-glucose donor, Tris pH 7.5, 40 °C, Michaelis-Menten, no substrate inhibition.

Substrate in data set [6]: COc1ccccc1O
The data set is described as follows: UDP-Glo glucosyltransferase assay, UDP release. Format: biochemical, Nicotiana benthamiana. Conditions: UDP-glucose donor, Tris pH 7.5, 40 °C, fit with substrate inhibition and Hill coefficients.

Substrate in data set [7]: O=c1c(O)c(-c2ccc(O)cc2)oc2cc(O)cc(O)c12
The experiment in a line: UDP-Glo glucosyltransferase assay, UDP release. Format: biochemical, Nicotiana benthamiana. Conditions: UDP-glucose donor, Tris pH 7.5, 40 °C, two products (3-O- and 7-O-glucoside).

The mark [8] stands for this setting: substrate inhibition constant, uncompetitive model with Hill coefficients.
Setting [9] is: substrate inhibition constant, complete (Vi = 0), uncompetitive model with Hill coefficients.

Turning to `CC1=C(/C=C/C(C)O)C(C)(C)CCC1` (stereo not drawn) [β-ionol], the “UDP-Glo assay with vanillin, effector added” value (“UDP-Glo assay with vanillin” below) in data set [1] (effector at 100 and 200 µM) was “addition of α- and β-ionol to the reaction resulted in a concentration-dependent increase in Ki”. In data set [2] (setting [8]), `C=CCc1ccc(O)c(OC)c1` [eugenol] had a Ki of 62 ± 17 µM. For `CC1=CCCC(C)(C)C1/C=C/C(C)O` (stereo not drawn) [α-ionol], the “UDP-Glo assay with vanillin” value in data set [1] (effector at 100 and 200 µM) is “addition of α- and β-ionol to the reaction resulted in a concentration-dependent increase in Ki”. As for `COc1ccccc1O` [guaiacol], the Ki in data set [2] (setting [9]) is on record as 1022 ± 69 µM. Regarding `COc1cc(/C=C/C=O)cc(OC)c1O` [sinapaldehyde], the Ki was 1398 ± 283 µM in data set [2] (setting [9]) and 1437 ± 138 µM in data set [3]. As for `COc1cc2ccc(=O)oc2cc1O` [scopoletin], the Ki in data set [2] (substrate inhibition constant (partial uncompetitive model with Hill coefficients)) was 16 ± 1 µM.

As to `CCCCCCCC/C=C\CCCCCCCC(=O)O` [oleic acid], the “UDP-Glo assay with vanillin” value in data set [1] (effector at 20 and 100 µM) was “increased catalytic activity of NbUGT72AY1, noted after addition of stearic and oleic acid”. Turning to `Cc1ccccc1O` [o-cresol], the Ki in data set [2] (setting [9]) is 1368 ± 165 µM. The Michaelis-Menten constant (Km) in data set [4] came out at 17 ± 9 µM. As for `COc1cc(C=O)ccc1O` [vanillin], the Ki in data set [2] (substrate inhibition constant, partial uncompetitive model with Hill coefficients (n = 1, x = 2), no effector) was 117 ± 24 µM. For `CCCCCCCCCCCCCCCCCC(=O)O` [stearic acid], the “UDP-Glo assay with vanillin” value in data set [1] (effector at 20 and 100 µM) is given as “Saturated stearic acid promoted the glycosylation activity of NbUGT72AY1 with vanillin”. As for `CCc1ccc(O)c(OC)c1` [ethylguaiacol], the Ki in data set [2] (setting [8]) came to 345 ± 58 µM.

B1: NbUGT72AY1 (Nicotiana benthamiana) (protein)
chain: T1 sequence (A0A8K1ZRH3 1-477)
notes: pGEX-4T-1 vector (GST fusion expected), expressed in E. coli BL21(DE3) pLysS
For B1, the Km in data set [5] was 331 ± 25 µM; in data set [6] it was 179 ± 44 µM; in data set [7], 15 ± 3 µM.
